# Test results: patent US9963703B2, “Compositions and methods for treating pancreatic cancer” (Autotelic LLC, priority 2016, dated 2018)
# How the values were obtained:
# WiDr colon cancer cells = experiment: Cellular proliferation of WiDr colon cancer cells in vitro; format: cell-based; conditions: treatment on day 1 for 5 h only
# Text: (§1) The aim of the study was to determine the effect of AP12009 (trabedersen) treatment in combination with 5-Fluorouracil (5-FU) on TGFβ2 secretion and on cellular proliferation of HUP-T3 pancreatic cancer cells and WiDr colon cancer cells in vitro.
# TGFβ2 [1] = experiment: TGFβ2 secretion/expression in HUP-T3 pancreatic cancer cells; format: cell-based
# Text: as §1
# [2] = test system: HUP-T3 pancreatic cancer cells; experiment: Cellular proliferation of HUP-T3 pancreatic cancer cells in vitro; conditions: HUP-T3; treatment on day 1 for 5 h; measured after 7 days
# Text: as §1
# TGFβ2 [3] = experiment: TGFβ2 secretion/expression in WiDr colon cancer cells; format: cell-based
# Text: as §1
structure (smiles),measurement,setting,value
"O=c1[nH]cc(F)c(=O)[nH]1 [5-FU, 5-Fluorouracil, reference compound]",5-FU concentrations that concentration-dependently reduced cell proliferation,WiDr colon cancer cells,> 38 µM
same,5-FU concentrations at which TGFβ2 was suppressed,TGFβ2 [1],> 75 µM
same,5-FU concentrations that dose-dependently reduced cell proliferation,[2],> 10 µM
same,5-FU concentrations at which TGFβ2 was suppressed,TGFβ2 [3],> 75 µM
